Test results reported in PMC9687812, “Discovery of Trace Amine-Associated Receptor 1 (TAAR1) Agonist 2-(5-(4′-Chloro-[1,1′-biphenyl]-4-yl)-4H-1,2,4-triazol-3-yl)ethan-1-amine (LK00764) for the Treatment of Psychotic Disorders” (Biomolecules, 2022).
Where two headings read alike, the source gives them in different places.

Columns and labels:
TAAR1 = target: T1, TAAR1 (Homo sapiens, UniProt Q96RJ0); assay: BRET-based cellular cAMP (EPAC biosensor) assay of TAAR1 agonism in transfected HEK-293 cells; settings: for Emax: HEK293, read-out: Emax: maximum observed activation of TAAR1 relative to that observed for 1 μM of β-PEA
T1 sequence (Q96RJ0 1-339): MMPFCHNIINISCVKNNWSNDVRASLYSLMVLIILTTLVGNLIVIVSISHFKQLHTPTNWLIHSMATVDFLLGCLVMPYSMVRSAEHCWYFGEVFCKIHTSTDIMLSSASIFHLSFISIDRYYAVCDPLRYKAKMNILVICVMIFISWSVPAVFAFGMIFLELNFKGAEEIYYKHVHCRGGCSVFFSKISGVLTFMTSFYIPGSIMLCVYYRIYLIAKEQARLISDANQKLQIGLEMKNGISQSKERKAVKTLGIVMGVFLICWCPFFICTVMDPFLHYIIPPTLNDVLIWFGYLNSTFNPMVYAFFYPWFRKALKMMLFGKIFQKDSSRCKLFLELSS

[1] = TAAR1 activation, BRET assay, HEK-293, mean from 3 assays
[2] = relative to 1 μM β-PEA, mean from 3 BRET assays, errors ±5–10%

For “2-(5-(2-[3,4-Difluorophenoxy]phenyl)-4H-1,2,4-triazol-3-yl) Hydrochloride [Compound 50]”, the EC50 (TAAR1; [1]) was “inactive” and the “Emax: maximum observed activation of TAAR1 relative to that observed for 1 μM of β-PEA” value (TAAR1; [2]) was “inactive”.
In the case of “2-(5-(3-Methyl-4-[([4-(trifluoromethyl)benzyl]oxy)phenyl]-4H-1,2,4-triazol-3-yl)) Hydrochloride [Compound 49]”, the EC50 (TAAR1; [1]) is reported as “inactive” and the “Emax: maximum observed activation of TAAR1 relative to that observed for 1 μM of β-PEA” value (TAAR1; [2]) is reported as “inactive”.
For “2-(5-(4-Ethylphenyl)-4H-1,2,4-triazol-3-yl)ethan-1-amine Hydrochloride [Compound 26]”, the EC50 (TAAR1; [1]) was > 1000 nM and the “Emax: maximum observed activation of TAAR1 relative to that observed for 1 μM of β-PEA” value (TAAR1; [2]) was 71.
With `COc1ccc(-c2nnc(CCN)[nH]2)cc1.Cl` [Compound 6, 2-(5-(4-Methoxyphenyl)-4H-1,2,4-triazol-3-yl)ethan-1-amine Hydrochloride] the melting point was 248 to 250 °C, the EC50 (TAAR1) was > 1000 nM and the Emax (TAAR1) was 56%.
Molecule `COc1cccc(-c2nnc(CCN)[nH]2)c1.Cl` [Compound 7, 2-(5-(3-Methoxyphenyl)-4H-1,2,4-triazol-3-yl)ethan-1-amine Hydrochloride] has a melting point of 235 to 236 °C, an EC50 (TAAR1) of 910 nM and an Emax (TAAR1) of 132%.
For `Cl.NCCc1nnc(-c2cccc(C(F)(F)F)c2)[nH]1` [Compound 8, 2-(5-(3-[Trifluoromethyl]phenyl)-4H-1,2,4-triazol-3-yl)ethan-1-amine Hydrochloride], the EC50 (TAAR1; [1]) was 210 nM and the “Emax: maximum observed activation of TAAR1 relative to that observed for 1 μM of β-PEA” value (TAAR1; [2]) was 108.
With `Cl.NCCc1nnc(-c2ccc(OC(F)(F)F)cc2)[nH]1` [Compound 9, 2-(5-(4-[Trifluoromethoxy]phenyl)-4H-1,2,4-triazol-3-yl)ethan-1-amine Hydrochloride] the melting point was 253 to 254 °C, the EC50 (TAAR1) was 310 nM and the Emax (TAAR1) was 116%.
In the case of `Cl.NCCc1nnc(-c2ccncc2)[nH]1` [Compound 10, 2-(5-(Pyridin-4-yl)-4H-1,2,4-triazol-3-yl)ethan-1-amine Hydrochloride], the melting point is reported as 257 to 258 °C, the Emax (TAAR1) is reported as 47% and the EC50 (TAAR1; [1]) is reported as > 1000 nM.
For `COc1ccc(-c2nnc(CCN)[nH]2)cc1OC.Cl` [Compound 11, 2-(5-(3,4-Dimethoxyphenyl)-4H-1,2,4-triazol-3-yl)ethan-1-amine Hydrochloride], the melting point was 209 to 210 °C, the EC50 (TAAR1; [1]) was “inactive” and the “Emax: maximum observed activation of TAAR1 relative to that observed for 1 μM of β-PEA” value (TAAR1; [2]) was “inactive”.
For `Cc1cc(-c2nnc(CCN)[nH]2)ccc1Br.Cl` [Compound 12, 2-(5-(4-Bromo-3-methylphenyl)-4H-1,2,4-triazol-3-yl)ethan-1-amine Hydrochloride], the melting point was 251 to 252 °C, the EC50 (TAAR1) was 812 nM and the Emax (TAAR1) was 87%.
For `Cl.NCCc1nnc(C(c2ccccc2)c2ccccc2)[nH]1` [Compound 13, 2-(5-(Diphenylmethyl)-4H-1,2,4-triazol-3-yl)ethan-1-amine Hydrochloride], the melting point was 236 to 237 °C, the EC50 (TAAR1; [1]) was “inactive” and the “Emax: maximum observed activation of TAAR1 relative to that observed for 1 μM of β-PEA” value (TAAR1; [2]) was “inactive”.
For `Cl.NCCc1nnc(-c2ccc([N+](=O)[O-])cc2)[nH]1` [Compound 14, 2-(5-(4-Nitrophenyl)-4H-1,2,4-triazol-3-yl)ethan-1-amine Hydrochloride], the melting point was 239 to 240 °C, the EC50 (TAAR1; [1]) was “inactive” and the “Emax: maximum observed activation of TAAR1 relative to that observed for 1 μM of β-PEA” value (TAAR1; [2]) was “inactive”.
In the case of `Cl.NCCc1nnc(-c2ccc(C(F)(F)F)cc2)[nH]1` [Compound 15, 2-(5-(4-[Trifluoromethyl]phenyl)-4H-1,2,4-triazol-3-yl)ethan-1-amine Hydrochloride], the melting point is reported as 254 to 255 °C, the EC50 (TAAR1; [1]) is reported as “inactive” and the “Emax: maximum observed activation of TAAR1 relative to that observed for 1 μM of β-PEA” value (TAAR1; [2]) is reported as “inactive”.
With `Cl.NCCc1nnc(-c2cccs2)[nH]1` [Compound 16, 2-(5-(Thiophen-2-yl)-4H-1,2,4-triazol-3-yl)ethan-1-amine Hydrochloride] the melting point was 248 to 250 °C, the EC50 (TAAR1) was > 1000 nM and the Emax (TAAR1) was 138%.
With `Cl.NCCc1nnc(COc2ccccc2)[nH]1` [Compound 17, 2-(5-(Phenoxymethyl)-4H-1,2,4-triazol-3-yl)ethan-1-amine Hydrochloride] the melting point was 206 to 207 °C, the EC50 (TAAR1; [1]) was “inactive” and the “Emax: maximum observed activation of TAAR1 relative to that observed for 1 μM of β-PEA” value (TAAR1; [2]) was “inactive”.
With `Cl.NCCc1nnc(-c2cccc(C(F)(F)F)c2)[nH]1` [Compound 18] the EC50 (TAAR1; [1]) was “inactive” and the “Emax: maximum observed activation of TAAR1 relative to that observed for 1 μM of β-PEA” value (TAAR1; [2]) was “inactive”.
Work on `Cl.NCCc1nnc(-c2ccc(OCc3ccccc3)cc2)[nH]1` [Compound 19, 2-(5-(4-(Benzyloxy)phenyl)-4H-1,2,4-triazol-3-yl)ethan-1-amine Hydrochloride] yielded a melting point of 238 to 240 °C, an EC50 (TAAR1) of 26 nM and an Emax (TAAR1) of 113%. For the same molecule, the EC50 (TAAR1; [1]) was “double-digit nanomolar range”.
For `Cl.NCCc1nnc(-c2cccc(Br)c2)[nH]1` [Compound 20, 2-(5-(3-Bromophenyl)-4H-1,2,4-triazol-3-yl)ethan-1-amine Hydrochloride], the melting point was 239 to 241 °C, the EC50 (TAAR1) was 218 nM and the Emax (TAAR1) was 124%.
In the case of `Cl.NCCc1nnc(-c2cc(Cl)cc(Cl)c2)[nH]1` [Compound 21, 2-(5-(3,5-Dichlorophenyl)-4H-1,2,4-triazol-3-yl)ethan-1-amine Hydrochloride], the melting point is reported as 222 to 224 °C, the EC50 (TAAR1) is reported as 23 nM and the Emax (TAAR1) is reported as 112%.
In the case of `Cl.NCCc1nnc(-c2ccccc2)[nH]1` [Compound 22, 2-(5-Phenyl-4H-1,2,4-triazol-3-yl)ethan-1-amine Hydrochloride], the melting point is reported as 250 to 252 °C, the EC50 (TAAR1) is reported as 283 nM and the Emax (TAAR1) is reported as 118%.
With `Cc1ccccc1-c1nnc(CCN)[nH]1.Cl` [Compound 23, 2-(5-(2-Methylphenyl)-4H-1,2,4-triazol-3-yl)ethan-1-amine Hydrochloride] the melting point was 235 to 236 °C, the EC50 (TAAR1) was 468 nM and the Emax (TAAR1) was 116%.
In the case of `CN(C)c1cccc(-c2nnc(CCN)[nH]2)c1.Cl` [Compound 24, 3-(5-(2-Aminoethyl)-4H-1,2,4-triazol-3-yl)-N,N-dimethylaniline Hydrochloride], the EC50 (TAAR1; [1]) is reported as “inactive” and the “Emax: maximum observed activation of TAAR1 relative to that observed for 1 μM of β-PEA” value (TAAR1; [2]) is reported as “inactive”.
With `CCOc1ccc(-c2nnc(CCN)[nH]2)cc1.Cl` [Compound 25, 2-(5-(4-Ethoxyphenyl)-4H-1,2,4-triazol-3-yl)ethan-1-amine Hydrochloride] the melting point was 235 to 236 °C, the EC50 (TAAR1) was 550 nM and the Emax (TAAR1) was 139%.
In the case of `Cl.NCCc1nnc(-c2ccccc2[N+](=O)[O-])[nH]1` [Compound 27, 2-(5-(2-Nitrophenyl)-4H-1,2,4-triazol-3-yl)ethan-1-amine Hydrochloride], the EC50 (TAAR1; [1]) is reported as > 1000 nM and the “Emax: maximum observed activation of TAAR1 relative to that observed for 1 μM of β-PEA” value (TAAR1; [2]) is reported as 69.
Work on `Cl.NCCc1nnc(-c2ccc(Cl)cc2)[nH]1` [Compound 28, 2-(5-(4-Chlorophenyl)-4H-1,2,4-triazol-3-yl)ethan-1-amine Hydrochloride] yielded a melting point of 239 to 241 °C, an EC50 (TAAR1) of 522 nM and an Emax (TAAR1) of 107%.
In the case of `Cl.NCCc1nnc(-c2ccccc2Br)[nH]1` [Compound 29, 2-(5-(2-Bromophenyl)-4H-1,2,4-triazol-3-yl)ethan-1-amine Hydrochloride], the melting point is reported as 194 to 196 °C, the EC50 (TAAR1) is reported as 696 nM and the Emax (TAAR1) is reported as 111%.
For `CN(C)c1ccc(-c2nnc(CCN)[nH]2)cc1` [Compound 30, 4-(5-(2-Aminoethyl)-4H-1,2,4-triazol-3-yl)-N,N-dimethylaniline], the melting point was 244 to 246 °C, the “Emax: maximum observed activation of TAAR1 relative to that observed for 1 μM of β-PEA” value (TAAR1) was 122 and the EC50 (TAAR1; [1]) was 730 nM.
For `Cc1cc(C)cc(-c2nnc(CCN)[nH]2)c1.Cl` [Compound 31, 2-(5-(3,5-Dimethylphenyl)-4H-1,2,4-triazol-3-yl)ethan-1-amine Hydrochloride], the melting point was 232 to 234 °C, the EC50 (TAAR1) was 813 nM and the Emax (TAAR1) was 117%.
In the case of `CCOc1cc(-c2nnc(CCN)[nH]2)cc(OCC)c1OCC.Cl` [Compound 32, 2-(5-(3,4,5-Triethoxyphenyl)-4H-1,2,4-triazol-3-yl)ethan-1-amine Hydrochloride], the melting point is reported as 253 to 255 °C, the EC50 (TAAR1; [1]) is reported as “inactive” and the “Emax: maximum observed activation of TAAR1 relative to that observed for 1 μM of β-PEA” value (TAAR1; [2]) is reported as “inactive”.
In the case of `COc1cc(OC)cc(-c2nnc(CCN)[nH]2)c1.Cl` [Compound 33, 2-(5-(3,5-Dimethoxyphenyl)-4H-1,2,4-triazol-3-yl)ethan-1-amine Hydrochloride], the melting point is reported as 245 to 247 °C, the Emax (TAAR1) is reported as 55% and the EC50 (TAAR1; [1]) is reported as > 1000 nM.
With `Cl.NCCc1nnc(-c2ccc(F)cc2)[nH]1` [Compound 34, 2-(5-(4-Fluorophenyl)-4H-1,2,4-triazol-3-yl)ethan-1-amine Hydrochloride] the melting point was 253 to 256 °C, the EC50 (TAAR1) was > 1000 nM and the Emax (TAAR1) was 169%.
For `Cl.NCCc1nnc(-c2ccc3ncccc3c2)[nH]1` [Compound 35, 2-(5-(Quinolin-6-yl)-4H-1,2,4-triazol-3-yl)ethan-1-amine Hydrochloride], the melting point was 265 to 267 °C, the EC50 (TAAR1) was > 1000 nM and the Emax (TAAR1) was 41%.
For `Cl.NCCc1nnc(-c2cccc(-c3ccc(F)cc3F)c2)[nH]1` [Compound 66, 2-(5-(4′-(2′,4′-Difluoro-(1,1′-biphenyl)-3-yl)-4H-1,2,4-triazol-3-yl)ethan-1-amine Hydrochloride], the EC50 (TAAR1; [1]) was 300 nM.
For `Cl.NCCc1nnc(-c2cccc(-c3ccc(F)cc3F)c2)[nH]1` [Compound 66], the “Emax: maximum observed activation of TAAR1 relative to that observed for 1 μM of β-PEA” value (TAAR1; [2]) was 91.
